The results in this text go back to patent publication US20220153732A1, “PROTEIN SECRETION INHIBITORS” (KEZAR LIFE SCIENCES, priority 2019, published 2022).

The structures appear in SMILES notation. A value given as a limit tells only on which side of the number the result lay.

Holding throughout (assay type): cell-based
In test [1] the test system is PD1-ss+10aa/Gaussia Luciferase. Briefly: Dox-Induced PD1-ss-Gluc Assay. As to conditions: 24 hr doxycycline induction, 293FRT/TO cells, Gaussia luciferase signal; read-out: 24 hr Dox Inducible PD1ssGluc 293FRT/TO: Mean IC50. A digest of the protocol:
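Compounds, diluted in DMSO/media with doxycycline, were added to cells plated a day earlier and kept at 37° C under 5% CO2. The cells stably express a Gaussia luciferase construct fused to PD1-ss+10aa, induced via the T-REx system. Unassigned stereochemistry means mixture data.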

The test system of test [2] is human multiple myeloma cell line NCI-H929. Briefly: H929 Cell Viability Assay. The note with it: 48 hr, NCI-H929 cells, Celltiter-Glo, read-out: 48 hr H929 Viability Celltiter-Glo: Mean EC50. The method, then:
Plates were incubated at 37° C., 5% CO2 for 48 hours. After 48 hours, Celltiter-Glo® (Promega) was added to each well and luciferase signal was quantified using Tecan Infinite M1000 Pro for cell viability determination.
For chemical structures that include one or more stereoisomers, but are illustrated without indicating stereochemistry, the assay data refers to a mixture of stereoisomers.

The test system of test [3] is IL-2-FL/Gaussia Luciferase. The test is described as follows: Dox Induced IL2-FL-Gluc Assay. The note with it: 24 hr doxycycline induction, 293FRT/TO cells, Gaussia luciferase signal; read-out: 24 hr Dox Inducible IL2FLGIuc 293FRT/TO: Mean IC50. A digest of the protocol:
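Compounds were added together with doxycycline in DMSO/media and incubated at 37° C., 5% CO2. The cells were a stably selected line carrying IL-2-FL/Gaussia luciferase under T-REx inducible control. Structures drawn without stereochemistry were tested as stereoisomer mixtures.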

Test [4] deals with TNFα-FL/Gaussia Luciferase. The test is described as follows: Dox Induced TNFα-FL-Gluc Assay. The note with it: 24 hr doxycycline induction, 293FRT/TO cells, Gaussia luciferase signal; read-out: 24 hr Dox Inducible TNFaFLGluc 293FRT/TO: Mean IC50. A digest of the protocol:
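Compounds were added in doxycycline-containing DMSO/media to cells plated the previous day and incubated at 37° C under 5% CO2. These cells stably express a TNFα-FL/Gaussia luciferase cDNA whose expression is under T-REx (Dox-inducible) control, selected with Hygromycin and Blasticidin.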

For test [5], the system named is human multiple myeloma cell line U266B1. Briefly: U266 Cell Viability Assay. As to conditions: U-266, 48 hr, U266B1 cells, Celltiter-Glo, read-out: 48 hr U266 Viability Celltiter-Glo: Mean EC50. Put shortly: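 Viability measured by CellTiter-Glo luciferase signal after 48 h compound exposure (37 °C, 5% CO2) of U266B1 cells in 384-well format. Where stereochemistry is not shown, data refer to the stereoisomer mixture.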
For orientation: ATP-based viability assays read luminescence as a measure of living cells.

Test [6] has as its system HER3-ss+4aa/Gaussia Luciferase. Briefly: Dox-Induced Her3-ss-Gluc Assay. As to conditions: 24 hr doxycycline induction, 293FRT/TO cells, Gaussia luciferase signal; read-out: 24 hr Dox Inducible Her3(ss + 4)Gluc 293FRT/TO: Mean IC50. Put shortly: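 Compounds, diluted in DMSO/media containing doxycycline, were incubated at 37° C., 5% CO2 with cells seeded one day earlier. The cells stably express HER3-ss+4aa/Gaussia luciferase under T-REx control. Where no stereochemistry is shown, data refer to the mixture of stereoisomers.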

A word on the EC50: it is the midpoint of the concentration-response curve.

For the compound `COc1ccc(/C=C/c2csc(NC(=O)c3cccn3Cc3ccncc3)n2)cc1F` [Compound A240, N-(4-(3-fluoro-4-methoxystyryl)thiazol-2-yl)-1-(pyridin-4-ylmethyl)-1H-pyrrole-2-carboxamide], the IC50 in test [1] amounted to 55 nM; in test [3], 445 nM; in test [4] it was 7790 nM; in test [6], 271 nM. For the same compound, the EC50 was 11.8 µM in test [2] and greater than 25 µM in test [5].

For `COc1ccc(/C=C/c2csc(NC(=O)c3cccn3Cc3ccncc3)n2)c(F)c1` [Compound A241, N-(4-(2-fluoro-4-methoxystyryl)thiazol-2-yl)-1-(pyridin-4-ylmethyl)-1H-pyrrole-2-carboxamide], the IC50 came to 27 nM in test [1], 324 nM in test [3], 1320 nM in test [4] and 179 nM in test [6]. The EC50 is 8.37 µM in test [2] and greater than 25 µM in test [5].

With `O=C(Nc1nc(C2=Cc3ccccc3C2)cs1)c1cccn1Cc1ccncc1` [Compound A242, N-(4-(1H-inden-2-yl)thiazol-2-yl)-1-(pyridin-4-ylmethyl)-1H-pyrrole-2-carboxamide], the IC50 in test [1] is 281 nM; in test [3], greater than 25000 nM; in test [4], greater than 25000 nM; in test [6], 596 nM. Besides, the EC50 in test [2] and in test [5] was greater than 25 µM each time.

With `CC(C)OC(C)(C)c1csc(NC(=O)c2cccn2CCCc2ccncc2F)n1` [Compound A243, 1-(3-(3-fluoropyridin-4-yl)propyl)-N-(4-(2-isopropoxypropan-2-yl)thiazol-2-yl)-1H-pyrrole-2-carboxamide], the IC50 was found to be 178 nM in test [1], 136 nM in test [3], 2360 nM in test [4] and 199 nM in test [6]. In addition, the EC50 in test [2] is 14.8 µM; in test [5], greater than 25 µM.

Consider `O=C(Nc1nc(/C=C/C2=CCCCC2)cs1)c1cccn1Cc1ccncc1` [Compound A244, N-(4-(2-(cyclohex-1-en-1-yl)vinyl)thiazol-2-yl)-1-(pyridin-4-ylmethyl)-1H-pyrrole-2-carboxamide], for which the IC50 in test [1] came to 81 nM; in test [3], 648 nM; in test [4], 1430 nM; in test [6], 225 nM. Further, the EC50 in test [2] was determined as 17.7 µM; in test [5], 17.4 µM.

Consider `CC(=O)N(C)c1ccc(/C=C/c2csc(NC(=O)c3cccn3Cc3ccncc3)n2)cc1` [Compound A245], for which the IC50 in test [1] is 3180 nM; in test [3], 14100 nM; in test [4], 22200 nM; in test [6], greater than 25000 nM. For the same compound, the figures for the EC50 in test [2] and in test [5] were 9.06 µM and 17.5 µM, respectively.

Take `CN(C)C(=O)c1ccc(/C=C/c2csc(NC(=O)c3cccn3Cc3ccncc3)n2)cc1` [Compound A246]: the IC50 in test [1] was 526 nM; in test [3], greater than 25000 nM; in test [4], greater than 25000 nM; in test [6] it was 21900 nM. In addition, the results for the concentration giving a half-maximal response (EC50) in test [2] and in test [5] were 14 µM and 10.3 µM, respectively.

With `C/C(=C\c1ccccc1)c1csc(NC(=O)c2cccn2Cc2ccncc2)n1` [Compound A247, N-(4-(1-phenylprop-1-en-2-yl)thiazol-2-yl)-1-(pyridin-4-ylmethyl)-1H-pyrrole-2-carboxamide], the IC50 in test [1] was 146 nM; in test [3] it was 788 nM; in test [4], 2320 nM; in test [6], 377 nM. Moreover, the EC50 in test [2] and in test [5] was greater than 25 µM in each case.

For `O=C(Nc1nc(/C=C/c2ccc(OC3CC3)cc2)cs1)c1cccn1Cc1ccncc1` [Compound A248, N-(4-(4-cyclopropoxystyryl)thiazol-2-yl)-1-(pyridin-4-ylmethyl)-1H-pyrrole-2-carboxamide], the IC50 in test [1] was 38 nM; in test [3], 211 nM; in test [4] it was 1500 nM; in test [6] it was 152 nM. In addition, the EC50 in test [2] and in test [5] was greater than 25 µM each time.

Turning to `O=C(Nc1nc(C2=CCC(c3ccccc3)CC2)cs1)c1cccn1Cc1ccncc1` (stereo not drawn) [Compound A249, 1-(pyridin-4-ylmethyl)-N-(4-(1,2,3,6-tetrahydro-[1,1-biphenyl]-4-yl)thiazol-2-yl)-1H-pyrrole-2-carboxamide], the IC50 was found to be 163 nM in test [1], 881 nM in test [3], 1410 nM in test [4] and 545 nM in test [6]. Also, the EC50 was 19.9 µM in test [2] and 14.4 µM in test [5].

On to `CCc1cnccc1Cn1cccc1C(=O)Nc1nc(C(C)(C)OC(C)C)cs1` [Compound A250, 1-((3-ethylpyridin-4-yl)methyl)-N-(4-(2-isopropoxypropan-2-yl)thiazol-2-yl)-1H-pyrrole-2-carboxamide], for which the IC50 in test [1] is 5280 nM; in test [3] it was 7400 nM; in test [4], greater than 25000 nM; in test [6] it was 15700 nM. The EC50 in test [2] and in test [5] was greater than 25 µM throughout.

In the case of `CC(/C=C/c1csc(NC(=O)c2cccn2Cc2ccncc2)n1)c1ccccc1` (stereo not drawn) [Compound A251], the IC50 in test [1] stood at 125 nM; in test [3] it was 549 nM; in test [4], 1420 nM; in test [6], 344 nM. In addition, the concentration for a half-maximal effect (EC50) was 11.7 µM in test [2] and greater than 25 µM in test [5].

`C/C(=C\c1csc(NC(=O)c2cccn2Cc2ccncc2)n1)c1ccccc1` [Compound A252]: the IC50 in test [1] amounted to 530 nM; in test [3], 1280 nM; in test [4] it was 6930 nM; in test [6] it was 1130 nM. The figures for the EC50 in test [2] and in test [5] were 14 µM and greater than 25 µM, respectively.

Consider `CO[C@H]1CC[C@H](/C=C/c2csc(NC(=O)c3cccn3Cc3ccncc3)n2)CC1` [Compound A253, N-(4-(2-((1r,4r)-4-methoxycyclohexyl)vinyl)thiazol-2-yl)-1-(pyridin-4-ylmethyl)-1H-pyrrole-2-carboxamide], for which the IC50 in test [1] turned out to be 220 nM; in test [3] it was 1580 nM; in test [4] it was 4200 nM; in test [6] it was 672 nM. For the same compound, the figures for the 50% effective concentration (EC50) in test [2] and in test [5] were 10.8 µM and 15.6 µM, respectively.

With `CO[C@H]1CC[C@@H](/C=C/c2csc(NC(=O)c3cccn3Cc3ccncc3)n2)CC1` [Compound A254, N-(4-(2-((1s,4s)-4-methoxycyclohexyl)vinyl)thiazol-2-yl)-1-(pyridin-4-ylmethyl)-1H-pyrrole-2-carboxamide], the IC50 worked out at 74 nM in test [1], 554 nM in test [3], 1530 nM in test [4] and 189 nM in test [6]. Also, the concentration giving a half-maximal response (EC50) in test [2] was determined as 4.1 µM; in test [5], 4.13 µM.

With `O=C(Nc1nc(C2CCC(c3ccccc3)CC2)cs1)c1cccn1Cc1ccncc1` (stereo not drawn) [Compound A255], the IC50 in test [1] was determined as 102 nM; in test [3], 477 nM; in test [4], 1330 nM; in test [6], 250 nM. Also, the values for the EC50 in test [2] and in test [5] were 7.21 µM and 18.1 µM, respectively.

Regarding `CC(C)OC(C)(C)c1csc(NC(=O)c2cccn2Cc2c(F)cncc2F)n1` [Compound A256, 1-((3,5-difluoropyridin-4-yl)methyl)-N-(4-(2-isopropoxypropan-2-yl)thiazol-2-yl)-1H-pyrrole-2-carboxamide], the IC50 in test [1] was 2150 nM; in test [3], 2870 nM; in test [4], greater than 25000 nM; in test [6] it was 4040 nM. Moreover, the EC50 in test [2] and in test [5] was greater than 25 µM throughout.
